Non-standard residues stand in square brackets, D forms with d. Residues, ends and D or L forms follow the SMILES beside them. No end group written: not given here. *: point of attachment. Succinimide(1-Et,3-yl) = CCN1C(=O)CC(*)C1=O; hArg = N=C(N)NCCCC[C@H](N)C(=O)O
Key:
mouse NMUR2 = mouse NMUR2 (Mus musculus, UniProt Q8BZ39); test: 125I-hNMU-25 binding assay, mouse R2; set-up: expressed in transfected cells; host or cells: HEK-293 FLP-In cells (pcDNA5); conditions: for IC50: binding
Experimental: (§1) Confluent cell monolayers expressing NMU receptors (the HEK cells described above) were harvested with phosphate buffered saline, collected by centrifugation, and resuspended in membrane buffer (50 mM TrisCl pH 7.4, 5 mM MgCl2, 1× Protease Inhibitor Cocktail, 10 μM phosphoramidon). After the cell pellet was homogenized, the solution was centrifuged at 18,000 rpm for 20 minutes at 4° C. The pellet was resuspended in membrane buffer to yield a final concentration of 0.5-5 μg/μL of membrane and stored at −80° C.
(§2) Experiments were performed in assay buffer (25 mM TrisCl, pH 7.4, 10 mM MgCl2, 2 mM EDTA, 1× Protease Inhibitor Cocktail, 100 μg/mL Bacitricin, 10 μM phosphoramidon) in 200 μL volumes in a 96-well format using 2-5 μg of membrane and 0.1 nM ^125I-hNMU-25 (about 12,000 cpm/well). For non-specific binding, 1 μM hNMU-25 was added. About 5 μL of peptides were added to measure antagonist activity, and the entire reaction was incubated at room temperature with shaking for 80 minutes. The reaction was terminated by rapid filtration through 0.3% poly-ethylenimine presoaked Millipore 96-well filter plates and washed with ice-cold buffer (5 mM TrisCl pH 7.4, 10 mM MgCl2, 2.5 mM EDTA, 0.04% Triton X-100). Plates were air-dried overnight at room temperature and recovered radioactivity was determined by standard scintillation counting. IC50 values were determined using GraphPad Prism software.
(§3) Concentration-response curves and radioligand-binding data were fitted using Prism (GraphPad Software). Results are summarized below in Tables 8 and 9.

rat NMUR2 = rat NMUR2 (Rattus norvegicus, UniProt Q9ESQ4); test: 125I-hNMU-25 binding assay, rat R2; set-up: expressed in transfected cells; host or cells: HEK-293 FLP-In cells (pcDNA5); conditions: for IC50: binding
Chain of rat NMUR2 (Q9ESQ4 whole entry): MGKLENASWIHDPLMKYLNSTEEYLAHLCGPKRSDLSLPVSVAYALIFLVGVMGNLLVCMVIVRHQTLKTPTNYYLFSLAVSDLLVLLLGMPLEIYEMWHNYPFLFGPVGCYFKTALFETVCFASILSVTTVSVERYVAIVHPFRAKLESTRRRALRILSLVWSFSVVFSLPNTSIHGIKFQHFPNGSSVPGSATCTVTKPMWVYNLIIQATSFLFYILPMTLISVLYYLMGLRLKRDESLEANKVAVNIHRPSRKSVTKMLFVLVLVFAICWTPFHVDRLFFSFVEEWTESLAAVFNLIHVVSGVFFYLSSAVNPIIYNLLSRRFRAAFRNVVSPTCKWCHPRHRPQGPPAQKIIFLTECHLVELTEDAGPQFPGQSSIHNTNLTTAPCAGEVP
Experimental: as §1, §2, §3

rat NMUR1-ATG = target: T1, rat NMUR1-ATG (Rattus norvegicus, UniProt Q9JJI5); test: 125I-hNMU-25 binding assay, rat R1-ATG; set-up: expressed in transfected cells; host or cells: HEK-293 FLP-In cells (pcDNA5); conditions: for IC50: binding
T1 sequence (Q9JJI5 1-425): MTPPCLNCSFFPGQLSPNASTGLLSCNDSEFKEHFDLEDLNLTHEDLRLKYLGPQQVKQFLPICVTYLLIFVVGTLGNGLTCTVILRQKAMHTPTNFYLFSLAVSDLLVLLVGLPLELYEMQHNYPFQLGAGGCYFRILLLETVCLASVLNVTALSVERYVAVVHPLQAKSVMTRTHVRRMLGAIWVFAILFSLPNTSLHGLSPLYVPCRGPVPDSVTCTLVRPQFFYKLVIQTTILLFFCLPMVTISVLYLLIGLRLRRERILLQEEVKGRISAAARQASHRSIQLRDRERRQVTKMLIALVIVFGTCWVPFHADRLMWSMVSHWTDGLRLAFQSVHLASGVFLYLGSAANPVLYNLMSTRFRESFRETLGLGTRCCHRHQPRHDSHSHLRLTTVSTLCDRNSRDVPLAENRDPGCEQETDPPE
Experimental: as §1, §2, §3

rat NMUR1-TTG = target: T2, rat NMUR1-TTG (Rattus norvegicus, UniProt Q9JJI5); test: FLIPR calcium mobilization assay, rat NMUR1-TTG; assay type: cell-based; set-up: expressed in transfected cells; host or cells: FLP-In CHO or HEK-293 FLP-In cells (pcDNA5); conditions: functional data, rat R1-TTG
T2 sequence (Q9JJI5 1-425): T1 sequence (Q9JJI5 1-425)

hNMUR1 = target: T3, hNMUR1 (Homo sapiens, UniProt Q9HB89); test: FLIPR calcium mobilization assay, human NMUR1; assay type: cell-based; set-up: expressed in transfected cells; host or cells: FLP-In CHO or HEK-293 FLP-In cells (pcDNA5); HEK-293/aeq17 lines (pIRES-puro) were also made; conditions: functional data, human R1
T3 sequence (Q9HB89 1-426): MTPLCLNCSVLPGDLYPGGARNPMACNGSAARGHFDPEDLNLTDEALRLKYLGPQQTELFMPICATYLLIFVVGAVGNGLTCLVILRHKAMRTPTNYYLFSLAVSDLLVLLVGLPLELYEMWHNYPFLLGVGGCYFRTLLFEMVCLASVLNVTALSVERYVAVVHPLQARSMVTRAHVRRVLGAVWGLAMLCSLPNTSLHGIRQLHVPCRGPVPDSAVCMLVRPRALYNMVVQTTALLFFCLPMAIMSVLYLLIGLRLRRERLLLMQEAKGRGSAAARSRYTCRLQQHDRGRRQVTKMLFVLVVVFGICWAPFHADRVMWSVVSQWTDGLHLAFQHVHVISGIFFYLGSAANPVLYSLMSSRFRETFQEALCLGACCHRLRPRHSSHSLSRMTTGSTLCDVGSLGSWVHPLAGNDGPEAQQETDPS

NMUR1 and NMUR2 = test: NMU receptor subtype selectivity (EC50 ratios human NMUR2/human NMUR1); assay type: cell-based; conditions: NMUR1 vs NMUR2
Experimental: The present invention provides neuromedin U receptor agonist. The neuromedin U receptor agonist described herein act at NMU receptors, bind the NMU receptors, and stimulate NMU receptor activity. In one aspect, the neuromedin U receptor agonists are specific for one receptor subtype, wherein such specificity is defined as having an IC50 values that is less than about 200 nM in the corresponding NMUR1 or NMUR2 receptor binding assay. Selectivity is based upon functional activity or EC50 ratios at human NMUR2/human NMUR1 for NMUR1-selective peptides and at human NMUR1/human NMUR2 for NMUR2-selective peptides. Further, the selective neuromedin U receptor agonists described herein range from about 21 to 909-fold selective for NMUR1 and from about 2 to 200-fold selective for NMUR2. In another aspect, the neuromedin U receptor agonists are capable of binding and stimulating both the NMUR1 and NMUR2 receptors and have been derivatized to enable the neuromedin U receptor agonists to cross the blood-brain bather and interact with NMU receptors in the brain. The neuromedin U receptor agonists can be used therapeutically and as research tools.

in vitro = conditions: human, plasma

Chain of mouse NMUR2 (Q8BZ39 whole entry): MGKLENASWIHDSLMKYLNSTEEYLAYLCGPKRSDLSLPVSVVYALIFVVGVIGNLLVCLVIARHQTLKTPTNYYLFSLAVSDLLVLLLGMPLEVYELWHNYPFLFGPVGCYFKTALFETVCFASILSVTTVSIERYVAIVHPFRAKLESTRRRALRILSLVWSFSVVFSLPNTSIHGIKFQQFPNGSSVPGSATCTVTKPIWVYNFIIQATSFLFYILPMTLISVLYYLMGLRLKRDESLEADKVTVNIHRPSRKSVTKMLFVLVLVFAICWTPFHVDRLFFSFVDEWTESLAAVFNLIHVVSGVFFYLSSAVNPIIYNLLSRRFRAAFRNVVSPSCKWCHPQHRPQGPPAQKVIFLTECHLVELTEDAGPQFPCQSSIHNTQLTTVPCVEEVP

Compound	% inhibition of NMU-25 binding (mouse NMUR2) [%]	IC50 (mouse NMUR2) [nM]	% inhibition of NMU-25 binding (rat NMUR2) [%]	IC50 (rat NMUR2) [nM]	% inhibition of NMU-25 binding (rat NMUR1-ATG) [%]	IC50 (rat NMUR1-ATG) [nM]	IC50 (rat NMUR1-TTG) [nM]	IC50 (hNMUR1) [nM]	receptor subtype specificity (NMUR1 and NMUR2)	half-life at 1 μM (in vitro) [h]
CC(C)C[C@@H](NC(=O)[C@H](Cc1ccccc1)NC(=O)[C@H](Cc1ccc(O)cc1)NC(=O)CNC(=O)[C@H](CCCNC(=N)N)NC(=O)[C@H](CO)NC(=O)[C@H](CCC(N)=O)NC(=O)[C@H](CO)NC(=O)[C@H](C)NC(=O)[C@H](Cc1ccccc1)NC(=O)[C@@H]1CCCN1C(=O)[C@H](CO)NC(=O)[C@H](CCC(N)=O)NC(=O)[C@H](Cc1ccccc1)NC(=O)[C@H](CCC(=O)O)NC(=O)[C@H](CCC(=O)O)NC(=O)[C@H](CC(=O)O)NC(=O)[C@@H](NC(=O)[C@H](CCCNC(=N)N)NC(=O)[C@@H](N)Cc1ccccc1)C(C)C)C(=O)N[C@@H](Cc1c[nH]c2ccccc12)C(=O)N[C@@H](CCCNC(=N)N)C(=O)N1CCC[C@H]1C(=O)N[C@@H](CCCNC(=N)N)C(=O)N[C@@H](CC(N)=O)C(N)=O [Agonist H] (H-FRVDEEFQSPFASQSRGYF[dL]WRPRN-NH2; N-terminus assumed)	20	> 1000	0	> 1000	100	15.9	153	1.25		
FALFRPRN-NH2 [Agonist N]									bispecific	
CCN1C(=O)CC(SC[C@H](NC(C)=O)C(=O)N[C@@H](Cc2ccccc2)C(=O)N[C@@H](CCCNC(=N)N)C(=O)N[C@H](C(=O)N[C@@H](CC(=O)O)C(=O)N[C@@H](CCC(=O)O)C(=O)N[C@@H](CCC(=O)O)C(=O)N[C@@H](Cc2ccccc2)C(=O)N[C@@H](CCC(N)=O)C(=O)N[C@@H](CO)C(=O)N2CCC[C@H]2C(=O)N[C@@H](Cc2ccccc2)C(=O)N[C@@H](C)C(=O)N[C@@H](CO)C(=O)N[C@@H](CCC(N)=O)C(=O)N[C@@H](CO)C(=O)N[C@@H](CCCNC(=N)N)C(=O)NCC(=O)N[C@@H](Cc2ccc(O)cc2)C(=O)N[C@@H](Cc2ccccc2)C(=O)N[C@H](C)C(=O)N[C@@H](Cc2c[nH]c3ccccc23)C(=O)N[C@@H](CCCNC(=N)N)C(=O)N2CCC[C@H]2C(=O)N[C@@H](CCCNC(=N)N)C(=O)N[C@@H](CC(N)=O)C(N)=O)C(C)C)C1=O (stereo partly shown) [NMU13] (Ac-C(Succinimide(1-Et,3-yl))FRVDEEFQSPFASQSRGYF[dA]WRPRN-NH2)	30	> 1000	0	> 1000	100					
CC(C)C[C@H](NC(=O)[C@H](Cc1c[nH]c2ccccc12)NC(=O)[C@H](Cc1ccccc1)NC(=O)CNC(=O)[C@H](CCCNC(=N)N)NC(=O)[C@H](CO)NC(=O)[C@H](CCC(N)=O)NC(=O)[C@H](CO)NC(=O)[C@H](C)NC(=O)[C@H](Cc1ccccc1)NC(=O)[C@@H]1CCCN1C(=O)[C@H](CO)NC(=O)[C@H](CCC(N)=O)NC(=O)[C@H](Cc1ccccc1)NC(=O)[C@H](CCC(=O)O)NC(=O)[C@H](CCC(=O)O)NC(=O)[C@H](CC(=O)O)NC(=O)[C@@H](NC(=O)[C@H](CCCNC(=N)N)NC(=O)[C@@H](N)Cc1ccccc1)C(C)C)C(=O)N[C@@H](Cc1ccccc1)C(=O)N[C@@H](CCCNC(=N)N)C(=O)N1CCC[C@H]1C(=O)N[C@@H](CCCCNC(=N)N)C(=O)N[C@@H](CC(N)=O)C(N)=O [Agonist O] (H-FRVDEEFQSPFASQSRGFWLFRP[hArg]N-NH2; N-terminus assumed)									bispecific	
CC(C)C[C@H](NC(=O)[C@H](Cc1c[nH]c2ccccc12)NC(=O)[C@H](Cc1ccccc1)NC(=O)CNC(=O)[C@H](CCCNC(=N)N)NC(=O)[C@H](CO)NC(=O)[C@H](CCC(N)=O)NC(=O)[C@H](CO)NC(=O)[C@H](C)NC(=O)[C@H](Cc1ccccc1)NC(=O)[C@@H]1CCCN1C(=O)[C@H](CO)NC(=O)[C@H](CCC(N)=O)NC(=O)[C@H](Cc1ccccc1)NC(=O)[C@H](CCC(=O)O)NC(=O)[C@H](CCC(=O)O)NC(=O)[C@H](CC(=O)O)NC(=O)[C@@H](NC(=O)[C@H](CCCNC(=N)N)NC(=O)[C@@H](N)Cc1ccccc1)C(C)C)C(=O)N[C@@H](Cc1ccccc1)C(=O)N[C@@H](CCCNC(=N)N)C(=O)N[C@@H](C)C(=O)N[C@@H](CCCCNC(=N)N)C(=O)N[C@@H](CC(N)=O)C(N)=O [Agonist P] (H-FRVDEEFQSPFASQSRGFWLFRA[hArg]N-NH2; N-terminus assumed)									bispecific	
H-FRVDEEFQSPFASQSRGYFLFRPRN-NH2 [hNMU-25, reference compound]		0.2		0.6		1.2	1	0.2		< 16

Reference: US20100075907A1, “NEUROMEDIN U RECEPTOR AGONISTS AND USES THEREOF” (priority 2006, published 2010)
